According to ChEMBL document CHEMBL4145659, “Discovery of a Series of Indole-2 Carboxamides as Selective Secreted Phospholipase A2 Type X (sPLA2-X) Inhibitors” (ACS Med Chem Lett, 2018):
Values belong to the compound of their own block, whether it stands above or below them. Calls of active or inactive are those of the source. The calls are words filed in the database; no cut-off is given here.

Tests used:
[1] = target: T1, Group 10 secretory phospholipase A2 (Homo sapiens, UniProt O15496); assay: Inhibition of recombinant human sPLA2-10 expressed in Escherichia coli BL21(DE3) using HDL as substrate pretreated for 20 mins followed by substrate addition and measured after 60 mins
T1 sequence (O15496 whole entry): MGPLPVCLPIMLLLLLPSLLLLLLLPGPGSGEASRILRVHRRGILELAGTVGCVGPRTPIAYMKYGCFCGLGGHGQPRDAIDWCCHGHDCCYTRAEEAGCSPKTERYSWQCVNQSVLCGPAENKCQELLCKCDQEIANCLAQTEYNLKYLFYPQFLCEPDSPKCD

[2] = target: T1, Group 10 secretory phospholipase A2; assay: (§1) Inhibition of recombinant human sPLA2-10 expressed in Escherichia coli BL21(DE3) using 1-palmitoyl-2-oleoyl-sn-glycero-3-phosphocholine as substrate pretreated for 20 mins followed by substrate addition and measured after 60 mins
[3] = target: T2, Phospholipase A2 group V (Homo sapiens) (UniProt P39877); assay: Inhibition of recombinant human sPLA2-5 expressed in Escherichia coli BL21(DE3) at 30 uM using 1-palmitoyl-2-oleoyl-sn-glycero-3-phosphocholine as substrate pretreated for 20 mins followed by substrate addition and measured after 60 mins
T2 sequence (whole entry): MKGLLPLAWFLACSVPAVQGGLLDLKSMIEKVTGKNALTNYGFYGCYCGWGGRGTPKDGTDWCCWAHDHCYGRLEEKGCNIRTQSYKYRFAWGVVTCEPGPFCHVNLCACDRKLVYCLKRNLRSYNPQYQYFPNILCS

[4] = target: T3, Phospholipase A2, membrane associated (Homo sapiens, UniProt P14555); assay: Inhibition of recombinant human sPLA2-2A expressed in Escherichia coli BL21(DE3) using 1-palmitoyl-2-oleoyl-sn-glycero-3-phosphocholine as substrate pretreated for 20 mins followed by substrate addition and measured after 60 mins
T3 sequence (P14555 whole entry): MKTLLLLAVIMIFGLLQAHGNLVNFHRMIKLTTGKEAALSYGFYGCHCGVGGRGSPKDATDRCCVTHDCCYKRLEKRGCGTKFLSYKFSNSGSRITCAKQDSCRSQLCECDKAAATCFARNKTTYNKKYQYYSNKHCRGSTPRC

[5] = target: T4, Phospholipase A2 group V (Homo sapiens, UniProt P39877); assay: Inhibition of recombinant human sPLA2-5 expressed in Escherichia coli BL21(DE3) using 1-palmitoyl-2-oleoyl-sn-glycero-3-phosphocholine as substrate pretreated for 20 mins followed by substrate addition and measured after 60 mins
T4 sequence (P39877 whole entry): T2 sequence (whole entry)

[6] = target: T5, Phospholipase A2, membrane associated (Homo sapiens) (UniProt P14555); assay: Inhibition of recombinant human sPLA2-2A expressed in Escherichia coli BL21(DE3) at 30 uM using 1-palmitoyl-2-oleoyl-sn-glycero-3-phosphocholine as substrate pretreated for 20 mins followed by substrate addition and measured after 60 mins
T5 sequence (whole entry): T3 sequence (P14555 whole entry)

[7] = target: T6, Group 10 secretory phospholipase A2 (Homo sapiens) (UniProt O15496); assay: as §1
T6 sequence (whole entry): T1 sequence (O15496 whole entry)

[8] = Clearance in Sprague-Dawley rat at 1 µmol/kg, iv by LC/MS analysis; conditions: in vivo
[9] = AUC in Sprague-Dawley rat at 4 µmol/kg, po administered via gavage by LC/MS analysis; conditions: in vivo
[10] = Intrinsic clearance in human hepatocytes assessed per million cells at 1 uM measured after 2 to 60 mins; format: ADME, cell-based, Hepatocyte; conditions: read-out: CLH
[11] = AUC in Beagle dog at 1 µmol/kg, iv by LC/MS analysis; conditions: in vivo
[12] = Clearance in Beagle dog at 1 µmol/kg, iv by LC/MS analysis; conditions: in vivo
[13] = target: T7, Group 10 secretory phospholipase A2 (Mus musculus, UniProt Q9QXX3); assay: Inhibition of mouse sPLA2-10 using 1-palmitoyl-2-oleoyl-sn-glycero-3-phosphocholine as substrate pretreated for 20 mins followed by substrate addition and measured after 60 mins
T7 sequence (Q9QXX3 whole entry): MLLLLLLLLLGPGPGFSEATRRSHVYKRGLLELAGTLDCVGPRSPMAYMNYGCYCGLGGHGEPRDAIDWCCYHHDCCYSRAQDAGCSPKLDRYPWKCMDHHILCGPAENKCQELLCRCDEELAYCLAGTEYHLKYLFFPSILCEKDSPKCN

[14] = AUC in Sprague-Dawley rat at 1 µmol/kg, iv by LC/MS analysis; conditions: in vivo
[15] = Oral bioavailability in Sprague-Dawley rat at 4 µmol/kg administered via gavage by LC/MS analysis; conditions: in vivo
[16] = Volume of distribution at steady state in Sprague-Dawley rat at 1 µmol/kg, iv by LC/MS analysis; conditions: in vivo, read-out: Vdss
[17] = Volume of distribution at steady state in Beagle dog at 1 µmol/kg, iv by LC/MS analysis; conditions: in vivo, read-out: Vdss

IC50 [1]: 740 nM
IC50 [2]: 93 nM
inhibition [3]: inactive
IC50 [4]: > 10000 nM
SMILES: NC(=O)c1cc2ccc(OCC(F)(F)F)cc2n1-c1cccc(CCC(=O)O)c1

IC50 [2]: > 30000 nM
SMILES: NC(=O)c1cc2ccccc2n1-c1ccccc1

IC50 [1]: 1900 nM
IC50 [2]: 160 nM
IC50 [4]: 2300 nM
IC50 [5]: > 10000 nM
SMILES: NC(=O)c1cc2ccc(C3CC3)cc2n1-c1cccc(CCC(=O)O)c1

IC50 [1]: 370 nM
IC50 [2]: 68 nM
inhibition [3]: inactive
IC50 [4]: 3600 nM
SMILES: NC(=O)c1cc2ccc(OC(F)F)cc2n1-c1cccc(CCC(=O)O)c1

IC50 [1]: 1100 nM
IC50 [2]: 90 nM
inhibition [3]: inactive
IC50 [4]: 5700 nM
SMILES: NC(=O)c1cc2ccc(Cl)cc2n1-c1cccc(CCC(=O)O)c1

IC50 [2]: 29100 nM
SMILES: NC(=O)c1cc2ccccc2n1-c1cccc(C(=O)O)c1

IC50 [2]: 2800 nM
inhibition [3]: inactive
inhibition [6]: inactive
SMILES: NC(=O)c1cc2ccc(CO)cc2n1-c1cccc(CCC(=O)O)c1

inhibition [7]: inactive
SMILES: NC(=O)c1cc2ccsc2n1-c1cccc(CCC(=O)O)c1

IC50 [2]: 170 nM
inhibition [3]: inactive
IC50 [4]: 4400 nM
SMILES: CCc1ccc2cc(C(N)=O)n(-c3cccc(CCC(=O)O)c3)c2c1

clearance [8]: 9.1 mL/min/kg
IC50 [1]: 270 nM
AUC [9]: 11 µM·h
IC50 [2]: 26 nM
IC50 [4]: 310 nM
IC50 [5]: 2230 nM
hepatocyte CLint at 1 µM [10]: 1.7 µL/min/1e6 cells
AUC [11]: 8.78 µM·h
clearance [12]: 0.75 mL/min/kg
IC50 [13]: 96 nM
AUC [14]: 1.84 µM·h
bioavailability [15]: 100%
Vd [16]: 2.54 L/kg
Vd [17]: 0.44 L/kg
SMILES: NC(=O)c1cc2ccc(OC(F)(F)F)cc2n1-c1cccc(CCC(=O)O)c1

inhibition [7]: inactive
SMILES: NC(=O)c1cccn1-c1cccc(CCC(=O)O)c1

IC50 [2]: 1900 nM
inhibition [3]: inactive
inhibition [6]: inactive
SMILES: Cc1cccc2cc(C(N)=O)n(-c3cccc(CCC(=O)O)c3)c12

IC50 [2]: 20700 nM
SMILES: NC(=O)c1cc2ccccc2n1Cc1cccc(C(=O)O)c1

SMILES: CCc1c(C(=O)C(N)=O)c2c(OCC(=O)O)cccc2n1Cc1ccccc1 [VARESPLADIB]
IC50 [5]: 124 nM

IC50 [2]: 7200 nM
SMILES: NC(=O)c1cc2ccccc2n1-c1cccc(C(=O)NCC(=O)O)c1

IC50 [2]: 990 nM
inhibition [3]: inactive
inhibition [6]: inactive
SMILES: NC(=O)c1cc2ccccc2n1-c1cccc(CCC(=O)O)c1

inhibition [7]: inactive
SMILES: NC(=O)c1cc2cccnc2n1-c1cccc(CCC(=O)O)c1

IC50 [2]: 6900 nM
SMILES: NC(=O)c1cc2ccccc2n1-c1cccc(C(F)(F)F)c1

inhibition [7]: inactive
SMILES: NC(=O)c1cc2sccc2n1-c1cccc(CCC(=O)O)c1

IC50 [2]: 26900 nM
SMILES: NC(=O)c1cc2ccccc2n1-c1cccc(OCC(=O)O)c1

inhibition [7]: inactive
SMILES: NC(=O)c1nc2ccccn2c1-c1cccc(CCC(=O)O)c1

IC50 [2]: 4800 nM
SMILES: CS(=O)(=O)NC(=O)CCc1cccc(-n2c(C(N)=O)cc3ccccc32)c1

IC50 [2]: 620 nM
inhibition [3]: inactive
inhibition [6]: inactive
SMILES: COc1ccc2cc(C(N)=O)n(-c3cccc(CCC(=O)O)c3)c2c1

IC50 [2]: 260 nM
inhibition [3]: inactive
inhibition [6]: inactive
SMILES: NC(=O)c1cc2ccc(F)cc2n1-c1cccc(CCC(=O)O)c1

IC50 [2]: > 30000 nM
SMILES: NC(=O)CCc1cccc(-n2c(C(N)=O)cc3ccccc32)c1

IC50 [2]: 23600 nM
SMILES: NC(=O)c1cc2ccccc2n1-c1cccc(/C=C/C(=O)O)c1

IC50 [2]: 830 nM
SMILES: Cc1cccc2c1cc(C(N)=O)n2-c1cccc(CCC(=O)O)c1

IC50 [2]: 10300 nM
SMILES: NC(=O)c1cc2ccccc2n1-c1cccc(CC(=O)O)c1

IC50 [2]: 230 nM
inhibition [3]: inactive
inhibition [6]: inactive
SMILES: Cc1ccc2cc(C(N)=O)n(-c3cccc(CCC(=O)O)c3)c2c1

IC50 [1]: 480 nM
IC50 [2]: 43 nM
IC50 [4]: 890 nM
IC50 [5]: 3700 nM
SMILES: NC(=O)c1cc2ccc(C(F)(F)F)cc2n1-c1cccc(CCC(=O)O)c1

IC50 [2]: 2700 nM
SMILES: Cc1ccc2c(c1)cc(C(N)=O)n2-c1cccc(CCC(=O)O)c1

IC50 [1]: 990 nM
IC50 [2]: 110 nM
inhibition [3]: inactive
IC50 [4]: 3900 nM
SMILES: N#Cc1ccc2cc(C(N)=O)n(-c3cccc(CCC(=O)O)c3)c2c1
